Molecular target: T1, hNLRP3 (Homo sapiens, UniProt Q96P20)
T1 construct: THP-1 cells were purchased from the American Type Culture Collection; host or cells: THP-1 cells, PMA-differentiated, stimulated with gramicidin
Assay: IL-1β production in PMA-differentiated THP-1 cells stimulated with gramicidin (hTHP-1 assay)
Assay type: cell-based
Conditions: read-out: NLRP3 Antagonist, hNLRP3 (THP-1, IL-1b) Normalized: GeoMean IC50
Procedure: Procedure 1: IL-1β Production in PMA-Differentiated THP-1 Cells Stimulated with Gramicidin.
THP-1 cells were purchased from the American Type Culture Collection and sub-cultured according to instructions from the supplier. […] Prior to the experiment, compounds were dissolved in dimethyl sulfoxide (DMSO) to generate a 30 mM stock. […] DMSO was backfilled in the plate to achieve a final DMSO assay concentration of 0.37%. The plate was then sealed and stored at room temperature until required.
THP-1 cells were treated with PMA (Phorbol 12-myristate 13-acetate) (20 ng/ml) for 16-18 hours. On the day of the experiment the media was removed and adherent cells were detached with trypsin for 5 minutes.
Procedure 2: IL-1β Production in PMA-Differentiated THP-1 Cells Stimulated with Gramicidin.
THP-1 cells were purchased from the American Type Culture Collection and sub-cultured according to instructions from the supplier. […] Prior to the experiment THP-1 were treated with PMA (Phorbol 12-myristate 13-acetate) (20 ng/ml) for 16-18 hours. Compounds were dissolved in dimethyl sulfoxide (DMSO) to generate a 30 mM stock. On the day of the experiment the media was removed and adherent cells were detached with trypsin for 5 minutes. […] Final DMSO concentration was at 0.37%. Cells were incubated with compounds for 1 hour and then stimulated with gramicidin (5 μM) (Enzo) for 2 hours. Plates were then centrifuged at 340 g for 5 min. Cell free supernatant (40 μL) was collected using a 96-channel PlateMaster (Gilson) and the production of IL-1β was evaluated by HTRF (cisbio).
1. Experimental procedure
1.2 Compound Preparation • Prepare the 3-fold serial dilution of the compounds with DMSO in a 384-well LDV Microplate using TECAN EVO system to generate the compound source plate with 10 concentrations. Top concentration is 30 mM. FIG. 5 depicts the layout of the microplate.
FIG. 5 depicts the layout of the plates: HC: 100 μM CRID3 (MCC950)+5 μM gramicidin LC: 5 μM Gramicidin.
1.5 IL-1β Detection • 1) Homogenize the 5× diluent #5 with a vortex and add 1 volume of stock solution in 4 volumes of distilled water. • 2) Thaw 20× stock solution of anti-IL1β-Cryptate-antibody and anti-IL1β XL-antibody. […] 2. Data Analysis: • 1.

T1 sequence (Q96P20 whole entry): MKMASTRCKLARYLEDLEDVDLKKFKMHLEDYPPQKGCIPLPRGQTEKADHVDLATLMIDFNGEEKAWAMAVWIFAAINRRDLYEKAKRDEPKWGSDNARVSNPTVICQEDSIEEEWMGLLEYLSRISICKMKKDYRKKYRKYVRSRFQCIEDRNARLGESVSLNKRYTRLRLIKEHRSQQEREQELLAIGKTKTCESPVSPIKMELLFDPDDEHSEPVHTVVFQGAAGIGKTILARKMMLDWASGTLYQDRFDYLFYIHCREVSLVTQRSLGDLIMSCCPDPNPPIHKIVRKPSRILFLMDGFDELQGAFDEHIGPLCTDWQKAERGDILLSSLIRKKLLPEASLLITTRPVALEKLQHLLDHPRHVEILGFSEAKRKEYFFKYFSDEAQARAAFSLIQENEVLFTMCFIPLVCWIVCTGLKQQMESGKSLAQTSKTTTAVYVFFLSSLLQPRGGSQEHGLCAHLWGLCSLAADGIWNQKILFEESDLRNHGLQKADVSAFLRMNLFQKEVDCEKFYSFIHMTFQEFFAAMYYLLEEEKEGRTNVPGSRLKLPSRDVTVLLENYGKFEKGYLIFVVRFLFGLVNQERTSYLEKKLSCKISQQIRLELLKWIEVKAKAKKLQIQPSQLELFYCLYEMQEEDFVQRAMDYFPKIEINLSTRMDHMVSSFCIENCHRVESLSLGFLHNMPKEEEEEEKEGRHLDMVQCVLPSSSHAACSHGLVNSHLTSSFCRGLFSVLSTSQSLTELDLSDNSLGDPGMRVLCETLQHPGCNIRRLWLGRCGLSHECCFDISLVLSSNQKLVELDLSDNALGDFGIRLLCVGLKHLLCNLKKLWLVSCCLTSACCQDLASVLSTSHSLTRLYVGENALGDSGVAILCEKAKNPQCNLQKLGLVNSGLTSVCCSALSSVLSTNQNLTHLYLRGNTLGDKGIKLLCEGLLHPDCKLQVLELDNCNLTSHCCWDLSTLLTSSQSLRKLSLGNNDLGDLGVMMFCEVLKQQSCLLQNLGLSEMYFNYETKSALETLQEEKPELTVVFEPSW

Row | IC50 [µM] | Structure (SMILES)
1 | 0.2 to 1 | Cc1c(C2CC2)nc2c(c1NC(=O)N=S1(=O)NC(=O)c3ccc(C(C)(C)O)cc31)CCC2 (centres unmarked) [Compound 105, 1-(2-cyclopropyl-3-methyl-6,7-dihydro-5H-cyclopenta[b]pyridin-4-yl)-3-(6-(2-hydroxypropan-2-yl)-1-oxido-3-oxo-2,3-dihydro-1l4-benzo[d]isothiazol-1-ylidene)urea]
2 | 1 to 5 | CC(C)(O)c1ccc2c(c1)S(=O)(=NC(=O)Nc1c3c(nc(C4CC4)c1C1CC1)CCC3)NC2=O (centres unmarked) [Compound 106, 1-(2,3-dicyclopropyl-6,7-dihydro-5H-cyclopenta[b]pyridin-4-yl)-3-(6-(2-hydroxypropan-2-yl)-1-oxido-3-oxo-2,3-dihydro-1l4-benzo[d]isothiazol-1-ylidene)urea]
3 | > 30 | CN1Cc2ccccc2S1(=O)=NC(=O)Nc1c2c(cc3c1CCC3)CCC2 (centres unmarked) [Compound 107]
4 | 1 to 5 | Cc1c(C(F)(F)F)nc2c(c1NC(=O)N=S1(=O)NC(=O)c3ccc(C(C)(C)O)cc31)CCC2 (centres unmarked) [Compound 108, 1-(6-(2-hydroxypropan-2-yl)-1-oxido-3-oxo-2,3-dihydro-1l4-benzo[d]isothiazol-1-ylidene)-3-(3-methyl-2-(trifluoromethyl)-6,7-dihydro-5H-cyclopenta[b]pyridin-4-yl)urea]
5 | > 30 | CC(C)c1cc(F)cc(C(C)C)c1CC(=O)N=S1(=O)NC(=O)c2ccc(C(C)(C)O)cc21 (centres unmarked) [Compound 109]
6 | 1 to 5 | CN(C)Cc1ccc2c(c1)S(=O)(=NC(=O)Nc1c3c(cc4c1CCC4)CCC3)NC2=O (centres unmarked) [Compound 110, 1-(6-((dimethylamino)methyl)-1-oxido-3-oxo-2,3-dihydro-1l4-benzo[d]isothiazol-1-ylidene)-3-(1,2,3,5,6,7-hexahydro-s-indacen-4-yl)urea]
7 | 0.2 to 1 | CC(C)(O)c1ccc2c(c1)S(=O)(=NC(=O)Nc1c3c(cc4c1CC4)CCC3)NC2=O (centres unmarked) [Compound 112, 1-(6-(2-hydroxypropan-2-yl)-1-oxido-3-oxo-2,3-dihydro-1l4-benzo[d]isothiazol-1-ylidene)-3-(2,4,5,6-tetrahydro-1H-cyclobuta[f]inden-3-yl)urea]
8 | 1 to 5 | O=C1CCCS(=O)(=NC(=O)Nc2c3c(cc4c2CCC4)CCC3)N1 (centres unmarked) [Compound 113, 1-(1,2,3,5,6,7-hexahydro-s-indacen-4-yl)-3-(1-oxido-3-oxo-1l6,2-thiazinan-1-ylidene)urea]
9 | > 30 | CC(C)(O)c1ccc2c(c1)S(=O)(=NC(=O)Cc1cc3c(c4c1CCC4)CCC3)NC2=O (centres unmarked) [Compound 114, 2-(1,2,3,6,7,8-hexahydro-as-indacen-4-yl)-N-(6-(2-hydroxypropan-2-yl)-1-oxido-3-oxo-2,3-dihydro-1l4-benzo[d]isothiazol-1-ylidene)acetamide]
10 | > 30 | CC(C)(O)c1ccc2c(c1)S(=O)(=NC(=O)Cc1c3c(cc4c1CCC4)CCC3)NC2=O (centres unmarked) [Compound 115, 2-(1,2,3,5,6,7-hexahydro-s-indacen-4-yl)-N-(6-(2-hydroxypropan-2-yl)-1-oxido-3-oxo-2,3-dihydro-1l4-benzo[d]isothiazol-1-ylidene)acetamide]
11 | > 30 | CN1C(=O)c2ccccc2S1(=O)=NC(=O)Nc1c2c(cc3c1CCC3)CCC2 (centres unmarked) [Compound 116]
12 | 1 to 5 | CC(C)(O)c1ccc2c(c1)S(=O)(=NC(=O)Nc1c3c(nc4c1CCC4)CCC3)NC2=O (centres unmarked) [Compound 117]
13 | 1 to 5 | CC(C)(O)c1ccc2c(c1)S(=O)(=NC(=O)Nc1c3c(nc4c1CCC4(C)C)CCC3)NC2=O (centres unmarked) [Compound 118, 1-(3,3-dimethyl-1,2,3,5,6,7-hexahydrodicyclopenta[b,e]pyridin-8-yl)-3-(6-(2-hydroxypropan-2-yl)-1-oxido-3-oxo-2,3-dihydro-1l4-benzo[d]isothiazol-1-ylidene)urea]
14 | 5 to 30 | O=C(N=S1(=O)CCCN1)Nc1c2c(cc3c1CCC3)CCC2 (centres unmarked) [Compound 119, 1-(1,2,3,5,6,7-hexahydro-s-indacen-4-yl)-3-(1-oxido-1l6-isothiazolidin-1-ylidene)urea]
15 | 0.2 to 1 | CC(C)(O)c1ccc2c(c1)C(=O)NS2(=O)=NC(=O)Nc1c2c(cc3c1CCC3)CCC2 (centres unmarked) [Compound 121, 1-(1,2,3,5,6,7-hexahydro-s-indacen-4-yl)-3-(5-(2-hydroxypropan-2-yl)-1-oxido-3-oxo-2,3-dihydro-1l4-benzo[d]isothiazol-1-ylidene)urea]
16 | 5 to 30 | CN(C)Cc1ccc2c(c1)CNS2(=O)=NC(=O)Nc1c2c(cc3c1CCC3)CCC2 (centres unmarked) [Compound 122, 1-{5-[(dimethylamino)methyl]-1-oxo-2,3-dihydro-1$l6,2-benzothiazol-1-ylidene}-3-(1,2,3,5,6,7-hexahydro-s-indacen-4-yl)urea]
17 | > 30 | CC(C)c1cc(C(F)F)cc(C(C)C)c1CC(=O)N=S1(=O)NC(=O)c2ccccc21 (centres unmarked) [Compound 123a]
18 | > 30 | CC(C)c1cc(C(F)F)cc(C(C)C)c1CC(=O)N=S1(=O)NC(=O)c2cc(CN(C)C)ccc21 (centres unmarked) [Compound 124, 2-[4-(difluoromethyl)-2,6-bis(propan-2-yl)phenyl]-N-{5-[(dimethylamino)methyl]-1,3-dioxo-2,3-dihydro-1$l6,2-benzothiazol-1-ylidene}acetamide]
19 | 5 to 30 | CN(C)Cc1ccc2c(c1)C(=O)NS2(=O)=NC(=O)Nc1c2c(cc3c1CCC3)CCC2 (centres unmarked) [Compound 125, 1-{5-[(dimethylamino)methyl]-1,3-dioxo-2,3-dihydro-1$l6,2-benzothiazol-1-ylidene}-3-(1,2,3,5,6,7-hexahydro-s-indacen-4-yl)urea]
20 | > 30 | CC(C)(O)c1ccc2c(c1)S(=O)(=NC(=O)Nc1c3c(cc4c1CCC4)CCC3)NC2 (centres unmarked) [Compound 126, 1-(1,2,3,5,6,7-hexahydro-s-indacen-4-yl)-3-[6-(2-hydroxypropan-2-yl)-1-oxo-2,3-dihydro-1-^λ-6,2-benzothiazol-1-ylidene]urea]
21 | 5 to 30 | O=C(Nc1c2c(cc3c1CCC3)CCC2)NS1(=O)=NC(=O)c2ccc(Cl)cc21 (centres unmarked) [Compound 128, 3-(6-chloro-1,3-dioxo-2,3-dihydro-1-^λ-6,2-benzothiazol-1-ylidene)-1-(1,2,3,5,6,7-hexahydro-s-indacen-4-yl)urea]
22 | 1 to 5 | O=C(N=S1(=O)CC2(COC2)C(=O)N1)Nc1c2c(cc3c1CCC3)CCC2 (centres unmarked) [Compound 132, 1-(1,2,3,5,6,7-hexahydro-s-indacen-4-yl)-3-(6-oxido-8-oxo-2-oxa-6l6-thia-7-azaspiro[3.4]octan-6-ylidene)urea]
23 | 5 to 30 | CN(C)Cc1ccc2c(c1)S(=O)(=NC(=O)Nc1c3c(cc4c1CCC4)CCC3)NC2 (centres unmarked) [Compound 133, 1-(6-((dimethylamino)methyl)-1-oxido-2,3-dihydro-1l4-benzo[d]isothiazol-1-ylidene)-3-(1,2,3,5,6,7-hexahydro-s-indacen-4-yl)urea]
24 | 5 to 30 | COC(=O)c1ccc2c(c1)S(=O)(=NC(=O)Nc1c3c(cc4c1CCC4)CCC3)NC2=O (centres unmarked) [Compound 134, methyl 1-(((1,2,3,5,6,7-hexahydro-s-indacen-4-yl)carbamoyl)imino)-3-oxo-2,3-dihydro-1H-1l4-benzo[d]isothiazole-6-carboxylate 1-oxide]
25 | > 30 | O=C(N=S1(=O)CC2(CN1)COC2)Nc1c2c(cc3c1CCC3)CCC2 (centres unmarked) [Compound 139b]
26 | 0.2 to 1 | O=C(N=S1(=O)NC(=O)c2ccc(CN3CCC3)cc21)Nc1c2c(cc3c1CCC3)CCC2 (centres unmarked) [Compound 204, 1-(6-(azetidin-1-ylmethyl)-1-oxido-3-oxo-2,3-dihydro-1l4-benzo[d]isothiazol-1-ylidene)-3-(1,2,3,5,6,7-hexahydro-s-indacen-4-yl)urea]
27 | 5 to 30 | C=C(C)c1ccc2c(c1)S(=O)(=NC(=O)Nc1c3c(cc4c1CCC4)CCC3)NC2=O (centres unmarked) [Compound 207, 1-(1,2,3,5,6,7-hexahydro-s-indacen-4-yl)-3-(1-oxido-3-oxo-6-(prop-1-en-2-yl)-2,3-dihydro-1l4-benzo[d]isothiazol-1-ylidene)urea]
28 | 0.04 to 0.2 | CC(O)(CO)c1ccc2c(c1)S(=O)(=NC(=O)Nc1c3c(cc4c1CCC4)CCC3)NC2=O (centres unmarked) [Compound 208, 1-(6-(1,2-dihydroxypropan-2-yl)-1-oxido-3-oxo-2,3-dihydro-1l4-benzo[d]isothiazol-1-ylidene)-3-(1,2,3,5,6,7-hexahydro-s-indacen-4-yl)urea]
29 | 5 to 30 | COC(=O)Cc1ccc2c(c1)S(=O)(=NC(=O)Nc1c3c(cc4c1CCC4)CCC3)NC2=O (centres unmarked) [Compound 209, methyl 2-(1-(((1,2,3,5,6,7-hexahydro-s-indacen-4-yl)carbamoyl)imino)-1-oxido-3-oxo-2,3-dihydro-1H-1l4-benzo[d]isothiazol-6-yl)acetate]
